Laboratory results published in patent US8247211B2, “Glycopeptide antibiotics” (American Cyanamid Company, priority 2001, dated 2012).

Experiments:
Experiment in all cases: In vitro antibacterial evaluation: minimum inhibitory concentration (MIC), broth dilution method
Format in all cases: cell-based
Enterococcus sp. = system: Enterococcus sp.
Outline: (§1)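 Test strains, among them recent clinical isolates carrying methicillin, penicillin and/or vancomycin resistance, were inoculated at 5×10^5 CFU/mL. A broth dilution series spanning 64-0.06 μg/mL in Muller-Hinton II […] (NCCLS M7-A2) defined the MIC as the lowest growth-inhibiting concentration.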

Escherichia coli = details: strain GC 4560
Outline: as §1

Staphylococcus sp. = details: broth dilution, 18 hours at 35° C.
Outline: as §1

Streptococcus sp. = system: Streptococcus sp.
Outline: as §1

CC(c1ccccc1)C1NC(=O)CNC(=O)C(CO)NC(=O)C(C(O)C2CN(Cc3ccccc3)C(=NCc3ccccc3)N2C2OC(CO)C(O)C(O)C2O)NC(=O)C(C(O)C2CN(Cc3ccccc3)C(=NCc3ccccc3)N2Cc2ccccc2)NC(=O)C(Cc2ccc(OC3OC(CO)C(OC4OC5COC6(OC5C(O)C4O)C4CC5CC(C4)CC6C5)C(O)C3O)cc2)NC1=O (stereo not drawn) [Example 79, Cyclo[glycyl-β-methylphenylalanyl-O-[4-O-[4,6-O-(2-adamantylidene)hexopyranosyl]hexopyranosyl]tyrosyl-3-[1,3-dibenzyl-2-(benzylimino)imidazolidin-4-yl]seryl-3-[1-benzyl-2-(benzylimino)-3-hexopyranosylimidazolidin-4-yl]serylseryl]]
16 µg/mL: MIC Enterococcus faecalis (GC 2242) (Enterococcus sp.; Enterococcus faecalis (GC 2242), broth dilution, 18 hours at 35° C.) | MIC Enterococcus faecalis (GC 2242) (Enterococcus sp.; strain GC 2242) | MIC Enterococcus faecalis (GC 4554) (Enterococcus sp.; strain GC 4554)
2 µg/mL: MIC Enterococcus avium (GC 4558) (Enterococcus sp.; strain GC 4558) | MIC Escherichia coli (GC 4560) (Escherichia coli) | MIC Coagulase Negative Staphylococcus (GC 4549) (Staphylococcus sp.)
8 µg/mL: MIC Enterococcus faecalis (GC 2691) (Enterococcus sp.; Enterococcus faecalis (GC 2691), broth dilution, 18 hours at 35° C.) | MIC Enterococcus faecalis (ATCC 29212) (Enterococcus sp.; strain ATCC 29212) | MIC Enterococcus faecium (GC 2243) (Enterococcus sp.; strain GC 2243) | MIC Enterococcus faecalis (GC 2691) (Enterococcus sp.; strain GC 2691) | MIC Enterococcus faecalis (GC 6189) (Enterococcus sp.; strain GC 6189) | MIC Staphylococcus aureus (GC 1131) (Staphylococcus sp.) | MIC Staphylococcus aureus (GC 4544) (Staphylococcus sp.) | MIC Streptococcus pneumoniae (GC 1894) (Streptococcus sp.; Streptococcus pneumoniae (GC 1894), broth dilution, 18 hours at 35° C.) | MIC Streptococcus pneumoniae (GC 4565) (Streptococcus sp.; Streptococcus pneumoniae (GC 4565), broth dilution, 18 hours at 35° C.) | MIC Streptococcus pneumoniae (GC 1894) (Streptococcus sp.; strain GC 1894) | MIC Streptococcus pneumoniae (GC 4565) (Streptococcus sp.; strain GC 4565)
32 µg/mL: MIC Enterococcus faecalis (GC 3059) (Enterococcus sp.; Enterococcus faecalis (GC 3059), broth dilution, 18 hours at 35° C.) | MIC Enterococcus faecalis (GC 3059) (Enterococcus sp.; strain GC 3059) | MIC Enterococcus faecalis (GC 4552) (Enterococcus sp.; strain GC 4552) | MIC Enterococcus faecium (GC 4556) (Enterococcus sp.; strain GC 4556)
4 µg/mL: MIC Enterococcus faecalis (GC 4553) (Enterococcus sp.; strain GC 4553) | MIC Enterococcus faecium (GC 4557) (Enterococcus sp.; strain GC 4557) | MIC Coagulase Negative Staphylococcus (GC 4547) (Staphylococcus sp.) | MIC Coagulase Negative Staphylococcus (GC 4548) (Staphylococcus sp.) | MIC Coagulase Negative Staphylococcus (GC 4551) (Staphylococcus sp.) | MIC Coagulase Negative Staphylococcus (GC 6257) (Staphylococcus sp.) | MIC Staphylococcus aureus (ATCC 29213) (Staphylococcus sp.) | MIC Staphylococcus aureus (GC 3051) (Staphylococcus sp.) | MIC Staphylococcus aureus (GC 3053) (Staphylococcus sp.) | MIC Staphylococcus aureus (GC 4541) (Staphylococcus sp.) | MIC Staphylococcus aureus (GC 4542) (Staphylococcus sp.) | MIC Staphylococcus aureus (GC 4545) (Staphylococcus sp.) | MIC Staphylococcus aureus SMITH (GC 4543) (Staphylococcus sp.) | MIC Staphylococcus haemolyticus (GC 4546) (Staphylococcus sp.) | MIC Staphylococcus aureus-SMITH (GC 4543) (Staphylococcus sp.; strain SMITH GC 4543) | MIC Streptococcus agalactiae (GC 4564) (Streptococcus sp.; Streptococcus agalactiae (GC 4564), broth dilution, 18 hours at 35° C.) | MIC Streptococcus pneumoniae (ATCC 6301) (Streptococcus sp.; Streptococcus pneumoniae (ATCC 6301), broth dilution, 18 hours at 35° C.) | MIC Streptococcus pyogenes (GC 4563) (Streptococcus sp.; Streptococcus pyogenes (GC 4563), broth dilution, 18 hours at 35° C.) | MIC Streptococcus pneumoniae (ATCC 6301) (Streptococcus sp.; strain ATCC 6301) | MIC Streptococcus pyogenes (GC 4563) (Streptococcus sp.; strain GC 4563) | MIC Streptococcus agalactiae (GC 4564) (Streptococcus sp.; strain GC 4564)
